Measured values from patent US7157487B2, “Vla-4 inhibitors” (Daiichi Pharmaceutical Co., Ltd., priority 2000, dated 2007).

Molecular target: T1, integrins haα4 and β1 (VLA-4) expressed on CHO cells (Homo sapiens, UniProt P05556+P13612)
T1 construct: expressed in transfected cells; host or cells: CHO cells
Test: In vitro Evaluation Test (1): binding of Eu3+-hVCAM-1 D1D7-IgG to CHO cells expressing integrins α4 and β1
Settings: inhibition of Eu3+-hVCAM-1 D1D7-IgG binding to CHO cells expressing α4β1; Ki calculated from IC50
Description: CHO cells forcedly expressed by the transduction of integrins haα4 and β1 were seeded in a Coster 3599 plate (3×10^4 cells/100 μl/well) and they were cultured for 2 days. After the medium was washed with buffer A* twice, 50 μl/well of Eu^3+-hVCAM-1 D1D7-IgG diluted to […] with an assay buffer ** was added. To the resulting well was added 50 μl/well of a test compound diluted with 2% DMS0-assay buffer (in the presence or absence of 6% human serum albumin) (to a well subjected to Scatchard analysis was added a solution diluted in another manner). After stirring for 5 minutes on a plate mixer, the plate was allowed to stand at room temperature for 1 hour. Then, the plate was washed four times with the buffer A and added with 100 μl/well of an enhancement reagent (DELFIA). The plate was shaken for 5 minutes on a plate mixer, followed by measurement of fluorescence intensity by a time-resolved fluorometer (DELFIA Wallac). From the binding ratio available by the following calculation formula: ((FT−FNS)−(FI−FNS))/(FT−FNS)×100, the IC50 (concentration inhibiting 50% of binding of CHO cells with hVCAM-1 D1D7-IgG) of the test compound was determined. In the above formula, FT means the fluorescence intensity of the well free of the test compound, FNS means the fluorescence intensity of the well free of the test compound and anti-hα4 antibody (SG/73), and FI means the fluorescence intensity of the well containing the test compound. The Kd indicating the binding strength and Bmax (maximum binding) were estimated within a range of 0.06 to 20 nM in accordance with the Scatchard analysis method.
The value Ki was calculated based on:
[formula] ((L) means a ligand concentration). (* buffer A: 25 mM HEPES (pH 7.5), 150 mM NaCl, 1 mM Ca^2+, 1 MM Mg^2+, 4 mM Mn^2+; ** assay buffer: 25 mM HEPES (pH 7.5), 150 mM NaCl, 1 mM Ca^2+, 1 mM Mg^2+, 4 mM Mn^2+, 0.1% BSA, 20 μM DTPA, with/without 6% ALBUMIN, HUMAN SERUM (C/N A-1653, SIGMA)) In vitro Evaluation Test (2)

T1 sequence (P13612 34-1032): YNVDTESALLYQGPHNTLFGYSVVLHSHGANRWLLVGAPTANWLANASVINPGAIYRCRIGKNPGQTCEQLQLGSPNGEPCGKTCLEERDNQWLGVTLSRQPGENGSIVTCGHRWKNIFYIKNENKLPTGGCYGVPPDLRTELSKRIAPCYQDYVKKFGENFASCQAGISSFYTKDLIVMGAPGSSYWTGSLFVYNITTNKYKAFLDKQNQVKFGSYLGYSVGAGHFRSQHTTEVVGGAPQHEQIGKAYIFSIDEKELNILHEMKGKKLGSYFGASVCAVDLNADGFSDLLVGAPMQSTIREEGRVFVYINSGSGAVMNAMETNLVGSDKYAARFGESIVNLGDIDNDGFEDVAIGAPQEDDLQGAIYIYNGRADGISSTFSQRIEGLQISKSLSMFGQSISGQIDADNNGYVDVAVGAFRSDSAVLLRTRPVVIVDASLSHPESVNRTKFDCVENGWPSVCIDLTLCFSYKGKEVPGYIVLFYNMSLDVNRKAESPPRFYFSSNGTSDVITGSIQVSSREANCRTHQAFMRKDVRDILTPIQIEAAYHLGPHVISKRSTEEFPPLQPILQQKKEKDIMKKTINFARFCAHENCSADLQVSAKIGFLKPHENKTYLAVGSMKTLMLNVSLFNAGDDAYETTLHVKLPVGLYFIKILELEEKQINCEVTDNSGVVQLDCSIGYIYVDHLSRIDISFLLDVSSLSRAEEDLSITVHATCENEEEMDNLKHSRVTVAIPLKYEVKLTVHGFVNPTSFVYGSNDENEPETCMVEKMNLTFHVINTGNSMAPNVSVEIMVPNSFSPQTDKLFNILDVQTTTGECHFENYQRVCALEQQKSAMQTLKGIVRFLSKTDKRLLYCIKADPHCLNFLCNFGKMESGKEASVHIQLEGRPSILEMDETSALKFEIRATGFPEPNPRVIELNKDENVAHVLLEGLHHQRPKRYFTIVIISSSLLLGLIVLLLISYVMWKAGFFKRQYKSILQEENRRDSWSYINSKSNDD
T1 sequence (P05556 21-798): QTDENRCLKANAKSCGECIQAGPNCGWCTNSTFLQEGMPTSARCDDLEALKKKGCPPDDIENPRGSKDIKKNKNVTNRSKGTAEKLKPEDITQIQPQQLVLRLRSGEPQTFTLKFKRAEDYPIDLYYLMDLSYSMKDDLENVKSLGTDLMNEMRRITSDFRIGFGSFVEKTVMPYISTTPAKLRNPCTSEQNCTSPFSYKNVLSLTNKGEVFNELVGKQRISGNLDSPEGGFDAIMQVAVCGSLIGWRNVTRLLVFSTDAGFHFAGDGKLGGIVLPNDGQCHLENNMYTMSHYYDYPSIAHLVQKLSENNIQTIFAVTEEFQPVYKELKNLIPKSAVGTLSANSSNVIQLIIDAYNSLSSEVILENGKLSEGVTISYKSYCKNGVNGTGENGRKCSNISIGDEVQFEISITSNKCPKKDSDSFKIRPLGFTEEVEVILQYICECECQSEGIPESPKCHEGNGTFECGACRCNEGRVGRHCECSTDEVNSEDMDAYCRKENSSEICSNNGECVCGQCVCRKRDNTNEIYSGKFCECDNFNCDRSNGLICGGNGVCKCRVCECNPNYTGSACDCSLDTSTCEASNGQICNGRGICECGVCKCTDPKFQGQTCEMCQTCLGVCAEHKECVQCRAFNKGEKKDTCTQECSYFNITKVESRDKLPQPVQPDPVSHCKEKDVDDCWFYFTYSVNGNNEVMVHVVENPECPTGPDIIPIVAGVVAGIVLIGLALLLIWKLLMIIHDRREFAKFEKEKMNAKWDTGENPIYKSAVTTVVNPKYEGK

| Ki [nM] | Structure (SMILES) |
| --- | --- |
| 10 | Cn1cc(C(=O)Nc2ccc(CC(=O)N3C[C@@H](F)C[C@H]3COc3ccc(C(=O)O)cn3)cc2Cl)c2ccccc21 [Example 150, 6-(1-(3-Chloro-4-(1-methyl-3-indolyl)carbonylaminophenylacetyl)-(4S)-fluoro-(2S)-pyrrolidinylmethoxy)nicotinic acid] |
| 37 | Cc1ccccc1Nc1nc2ccc(CC(=O)N3CC=C[C@H]3COc3ccc(C(=O)O)cc3)cc2o1 [Example 151, 4-(3,4-Dehydro-1-((2-(2-methylphenylamino)-6-benzoxazolyl)acetyl)-(2S)-pyrrolidinylmethoxy)benzoic acid] |
| 3.8 | Cc1ccc(F)cc1Nc1nc2ccc(CC(=O)N3C[C@@H](F)C[C@H]3CO[C@H]3CC[C@H](C(=O)O)CC3)cc2o1 [Example 41, trans-4-(1-((2-(5-Fluoro-2-methylphenylamino)-6-benzoxazolyl)acetyl)-(4S)-fluoro-(2S)-pyrrolidinylmethoxy)cyclohexanecarboxylic acid] |
| 20 | O=C(Cc1ccc2nc(N3CCc4ccccc43)oc2c1)N1C[C@@H](F)C[C@H]1CO[C@H]1CC[C@H](C(=O)O)CC1 [Example 104] |
| 16 | Cc1ccccc1Nc1nc2ccc(CC(=O)N3C[C@@H](F)C[C@H]3C(=O)N3CCC(CC(=O)O)CC3)cc2o1 [Example 31, 1-((4S)-Fluoro-1-(2-(2-methylphenylamino)-6-benzoxazolylacetyl)-(2S)-pyrrolidinylcarbonyl)-4-piperidinylacetic acid] |
| 61 | Cc1ccc(F)cc1Nc1nc2ccc(CC(=O)N3CC[C@@H](O[C@H]4CC[C@H](C(=O)O)CC4)C3)c(F)c2o1 [Example 160, 4-(1-(2-(5-Fluoro-2-methylphenylamino)-7-fluoro-6-benzoxazolylacetyl)-(3R)-pyrrolidinyloxy)cyclohexanecarboxylic acid] |

Continued, molecule first:

| Structure (SMILES) | Ki [nM] |
| --- | --- |
| C[C@H]1C[C@@H](CO[C@H]2CC[C@H](C(=O)O)CC2)N(C(=O)Cc2cc(Cl)c(NC(=O)c3cn(C)c4ccccc34)cc2F)C1 [Example 133, trans-4-(1-(5-Chloro-2-fluoro-4-((1-methyl-1H-3-indolylcarbonyl)amino)phenylacetyl)-(4S)-methyl-(2S)-pyrrolidinylmethoxy)cyclohexanecarboxylic acid] | 22 |
| O=C(Cc1ccc(Nc2nc3ccccc3s2)c(Cl)c1)N1C[C@@H](F)C[C@H]1CO[C@H]1CC[C@H](C(=O)O)CC1 [Example 56, trans-4-(1-(4-(2-Benzothiazolyl)amino-3-chlorophenylacetyl)-(4S)-fluoro-(2S)-pyrrolidinylmethoxy)cyclohexanecarboxylic acid] | 2.1 |
| O=C(Cc1ccc(Nc2nc3c(Cl)cccc3s2)c(Cl)c1)N1C[C@@H](F)C[C@H]1CO[C@H]1CC[C@H](C(=O)O)CC1 [Example 60, trans-4-(1-(4-(4-Chloro-2-benzothiazolyl)amino-3-chlorophenylacetyl)-(4S)-fluoro-(2S)-pyrrolidinylmethoxy)cyclohexanecarboxylic acid] | 6.3 |
| Cc1ccc(F)cc1Nc1nc2ccc(CC(=O)N3[C@H](CO[C@H]4CC[C@H](C(=O)O)CC4)CC[C@@H]3C)c(F)c2o1 [Example 137, trans-4-(1-((2-(5-Fluoro-2-methylphenylamino)-7-fluoro-6-benzoxazolyl)acetyl)-(5S)-methyl-(2S)-pyrrolidinylmethoxy)cyclohexanecarboxylic acid] | 5.6 |
| O=C(Nc1cc(F)c(CC(=O)N2C[C@@H](F)C[C@H]2CO[C@H]2CC[C@H](C(=O)O)CC2)cc1Cl)c1nsc2ccccc12 [Example 85, trans-4-(1-(5-Chloro-2-fluoro-(4-((3-benzo(d)isothiazolylcarbonyl)amino)phenyl)acetyl)-(4S)-fluoro-(2S)-pyrrolidinylmethoxy)cyclohexanecarboxylic acid] | 6.4 |
| Cn1cc(-c2nc3ccc(CC(=O)N4C[C@@H](F)C[C@H]4CO[C@H]4CC[C@H](C(=O)O)CC4)cc3o2)c2cc(Cl)ccc21 [Example 96, trans-4-(1-((2-(5-Chloro-1-methyl-3-indolyl)-6-benzoxazolyl)acetyl)-(4S)-fluoro-(2S)-pyrrolidinylmethoxy)cyclohexanecarboxylic acid] | 20 |
